Where two headings read alike, the source gives them in different places.
Assay: Pharmacokinetics in mice (intravenous and oral)
Type: in vivo
Conditions: mouse
Protocol: Adult male C57BL/6J mice (25–35 g) were maintained on chow diet, had free access to water and were conscious through the study. LP-925219 was delivered by bolus intravenous administration at 1 mg/kg or by oral gavage at a dose of 10 mg/kg; 0.1% Tween-80 served as vehicle. Following intravenous injection, serial blood samples were collected in Ethylenediaminetetraacetic acid-containing tubes through 6 h. Following oral administration, serial blood samples were collected through 24 h. The plasma fraction was immediately separated by centrifugation at 4°C, and then stored at −20°C until sample analysis. To quantify LP-925219 concentrations, plasma samples were extracted with acetonitrile-water-formic acid (80:20:0.1) containing verapamil as internal standard at a concentration of 1 μmol/L. Extracted samples were analyzed by LC/MS-MS using a Surveyor HPLC system with a TSQ triple quadrupole mass spectrometer coupled with an Electrospray ionization source (Thermo Fisher Scientific, Waltham, MA). XCalibur 2.0 SR2 software (Thermo Fisher Scientific) was used for instrument control and data calculation. A rapid LC gradient with ammonium acetate […] (pH ∼6) and acetonitrile was used. Calculations were made by normalizing the area counts of compound to the area counts of the internal standard (relative area counts).
All plasma concentration versus time data for LP-925219 were analyzed using noncompartmental analysis, either extravascular administration (for oral administration) or bolus IV administration (for intravenous administration), of Phoenix™ WinNonlin® (version 6.3, Pharsight, Inc. Mountain View, CA). The half-life during the terminal phase was calculated from the elimination rate constant (λ) determined by the linear regression analysis of the log-linear part of the plasma concentration curve. The LP-925219 AUC0–t was calculated using linear up/log down trapezoidal method up to the last measured concentration at time t (Ct). AUC0–∞ was calculated as AUC0–t + Ct/λ. Clearance (CL) was calculated by dose/AUC0–∞. Other pharmacokinetic parameters included plasma peak concentration (Cmax), the time of Cmax (Tmax) and volume of distribution at steady state (Vss). Oral bioavailability (%F) was calculated by the equation: %F = (AUC0–∞ PO/AUC0–∞ IV) × (Dose IV/Dose PO).

[1] = male, C57BL/6J, plasma, 1 mg/kg intravenous
[2] = male, C57BL/6J, plasma, 10 mg/kg oral

`COc1ccc(Cc2cc([C@@H]3O[C@H](SC)[C@@H](O)[C@H](O)[C@H]3O)ccc2Cl)cc1` [LP-925219] showed an AUC(0-inf) [1] of 1.41 ± 0.04 µM·h, an AUC(0-t) [1] of 1.214 ± 0.012 µM·h and a Cmax [1] of 1440 ± 97 nM. The clearance [1] was 29 ± 1 mL/min/kg, the half-life [1] was 2.8 ± 0.7 h and the Vd (male, C57BL/6J, plasma, 1 mg/kg intravenous, read-out: Vss) was 4.4 ± 0.6 L/kg. For the same compound, the AUC(0-t) [2] was 11.2 µM·h, the Cmax [2] was 3160 ± 802 nM and the Tmax [2] was 0.3 h. For the same compound, the half-life [2] was 7 ± 0.9 h, the bioavailability (male, C57BL/6J, plasma, 10 mg/kg oral vs 1 mg/kg intravenous, read-out: %F) was 87 ± 21% and the concentration at 6 h (male, C57BL/6J, plasma, 10 mg/kg oral, 6 h, read-out: plasma level at 6 h postdosing) was 617 ± 107 nM. For the same compound, the concentration at 24 h (male, C57BL/6J, plasma, 10 mg/kg oral, 24 h, read-out: plasma level at 24 h post dosing) was 100 ± 43 nM, the bioavailability (male, C57BL/6J, plasma, 10 mg/kg oral, read-out: bioavailability (%F)) was 87% and the “AUC0-∞” value (10 mg/kg oral) was 12,214 ± 3037 nmo/L*h. For the same compound, the “plasma level at 24 h post dosing” value (10 mg/kg oral, 24 h, 10 mg/kg) was 100 nM.

From PMC4448982, “LP-925219 maximizes urinary glucose excretion in mice by inhibiting both renal SGLT1 and SGLT2” (Pharmacology Research & Perspectives, 2015)
